System: influenza virus A/H1N1(H275Y) (A/Parma/38/2008)
Format: cell-based, influenza virus type A

Which EC50 does the source give for `CCOC(=O)C1=CC(OC(CC)CC)C(NC(C)=O)C(NC2(C(=O)O)CC(O)C(NC(C)=O)C(CNC34CC5CC(CC(C5)C3)C4)O2)C1` (centres unmarked) [THE 08/01, Amantadine-C7-Neu5Ac—C16H28N2O4] here?
Its EC50 is 14.5 µM.

And the “antiviral activity in vitro versus influenza virus A/H1N1(H275Y)” value?
Its value is “comparable to that determined versus A/H1N1”.
